Assay results from ChEMBL document CHEMBL5365532, “Discovery of Triazinone Derivatives as Novel, Specific, and Direct NLRP3 Inflammasome Inhibitors for the Treatment of DSS-Induced Ulcerative Colitis” (J Med Chem, 2023).
Active and inactive are the calls of the source. The rule behind the calls is not given here.

Experiments:
[1] = Metabolic stability in human liver microsomes; assay type: ADME, Microsome
[2] = target: NACHT, LRR and PYD domains-containing protein 3 (Mus musculus, UniProt Q8R4B8); test: Inhibition of NLRP3 inflammasome in C57BL/6 mouse BMDM cells assessed as inhibition of LPS/nigericin-induced IL-1 beta secretion pretreated with LPS for 3 hrs followed by incubation with compound for 40 mins and later stimulated with nigericin for 35 mins by ELISA; assay type: cell-based
THP-1 [3] = test: Cytotoxicity against PMA-differentiated human THP-1 cells assessed as cell viability at 0.16 to 20 uM incubated for 24 hrs by CCK8 assay; assay type: toxicity, cell-based; details: thp-1, 24 h, dose 0.16-20 µM
BMDM = test: Cytotoxicity against C57BL/6 mouse BMDM cells assessed as cell viability at 0.16 to 20 uM incubated for 24 hrs by CCK8 assay; assay type: toxicity, cell-based; details: dose 0.16-20 µM
THP-1 [4] = test: Effect on NLRP3 protein expression in PMA-differentiated human THP-1 cells at 0.2 to 0.8 uM pretreated with LPS for 3 hrs followed by incubation with compound for 40 mins and later stimulated with nigericin for 35 mins by western blot analysis; assay type: functional, cell-based; details: dose 0.2-0.8 µM, time 75.0 min
THP-1 [5] = test: Effect on ASC protein expression in PMA-differentiated human THP-1 cells at 0.2 to 0.8 uM pretreated with LPS for 3 hrs followed by incubation with compound for 40 mins and later stimulated with nigericin for 35 mins by western blot analysis; assay type: functional, cell-based; details: dose 0.2-0.8 µM, time 75.0 min
THP-1 [6] = test: Effect on pro-IL-1beta protein expression in PMA-differentiated human THP-1 cells at 0.2 to 0.8 uM pretreated with compound for 40 mins followed by LPS challenge for 3 hrs by western blot analysis; assay type: functional, cell-based; details: dose 0.2-0.8 µM, time 220.0 min
[7] = target: NACHT, LRR and PYD domains-containing protein 3 (Mus musculus) (UniProt Q8R4B8); test: Inhibition of NLRP3 inflammasome in C57BL/6 mouse BMDM cells assessed as inhibition of LPS/MSU-induced IL-1 beta secretion at 0.2 to 0.8 uM pretreated with LPS for 3 hrs followed by incubation with compound for 40 mins and later stimulated with MSU for 12 hrs by ELISA; assay type: cell-based; details: dose 0.2-0.8 µM, time 760.0 min
[8] = target: T1, Interferon-inducible protein AIM2 (Mus musculus) (UniProt Q91VJ1); test: Inhibition of AIM2 inflammasome in C57BL/6 mouse BMDM cells assessed as inhibition of LPS/poly(dA:dT)-induced IL-1 beta secretion at 0.2 to 0.8 uM pretreated with LPS for 3 hrs followed by incubation with compound for 40 mins and later stimulated with poly(dA:dT) for 6 hrs by ELISA; assay type: cell-based; details: dose 0.2-0.8 µM, time 400.0 min
T1 sequence (whole entry): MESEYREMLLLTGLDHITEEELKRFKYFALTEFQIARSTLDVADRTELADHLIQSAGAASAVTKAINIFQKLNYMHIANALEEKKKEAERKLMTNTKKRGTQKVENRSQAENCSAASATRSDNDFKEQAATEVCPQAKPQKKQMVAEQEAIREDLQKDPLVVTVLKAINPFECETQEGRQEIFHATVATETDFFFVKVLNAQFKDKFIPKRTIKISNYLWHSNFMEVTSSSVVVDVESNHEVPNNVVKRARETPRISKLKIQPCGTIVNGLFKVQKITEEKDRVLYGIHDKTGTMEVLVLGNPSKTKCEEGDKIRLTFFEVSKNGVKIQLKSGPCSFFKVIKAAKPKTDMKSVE

THP-1 [9] = test: Inhibition of lysosomal damage in PMA-differentiated human THP-1 cells at 0.2 to 45 uM pretreated with LPS for 3 hrs followed by incubation with compound for 40 mins and later stimulated with nigericin for 35 mins by AO staining based analysis; assay type: functional, cell-based; details: dose 0.2-45 µM, time 75.0 min
THP-1 [10] = test: Inhibition of K+ efflux in PMA-differentiated human THP-1 cells at 0.8 to 45 uM pretreated with LPS for 3 hrs followed by incubation with compound for 40 mins and later stimulated with nigericin for 35 mins; assay type: functional, cell-based; details: dose 0.8-45 µM, time 75.0 min
THP-1 [11] = test: Inhibition of Cl- efflux in PMA-differentiated human THP-1 cells at 0.8 to 45 uM pretreated with LPS for 3 hrs followed by incubation with compound for 40 mins and later stimulated with nigericin for 35 mins; assay type: functional, cell-based; details: dose 0.8-45 µM, time 75.0 min
Homo sapiens [12] = organism: Homo sapiens; test: Binding affinity to N-terminal GST-tagged human NLRP3deltaLRR mutant (1 to 649 residues) expressed in Escherichia coli BL21 assessed as decrease in pronase-mediated protein degradation at 1 to 100 uM incubated with compound for 50 mins followed by pronase digestion for 30 mins by DARTS analysis; details: dose 1-100 µM, time 80.0 min
Homo sapiens [13] = organism: Homo sapiens; test: Binding affinity to N-terminal GST-tagged human NLRP3deltaLRR mutant (1 to 649 residues) expressed in Escherichia coli BL21 assessed as increase in protein thermal stability at 10 to 20 uM at 48 to 72 degC by CETSA analysis; details: dose 10-20 µM
[14] = MRT (0 to t) in BALB/c mouse at 10 mg/kg, po; assay type: ADME, organism-based; details: in vivo
[15] = Tmax in BALB/c mouse at 10 mg/kg, po; assay type: ADME, organism-based; details: in vivo
[16] = Half life in BALB/c mouse at 10 mg/kg, po; assay type: ADME, organism-based; details: in vivo
[17] = Apparent clearance in BALB/c mouse at 10 mg/kg, po; assay type: ADME, organism-based; details: in vivo
[18] = MRT (0 to t) in BALB/c mouse at 10 mg/kg, iv; assay type: ADME, organism-based; details: in vivo
[19] = Half life in BALB/c mouse at 10 mg/kg, iv; assay type: ADME, organism-based; details: in vivo
Mus musculus [20] = test: Antiinflammatory activity against DSS-induced ulcerative colitis C57BL/6 mouse model assessed as decrease in body weight loss at 10 to 30 mg/kg, ip fed with DSS for 6 days followed by administration with compound for 5 days; assay type: functional, organism-based; details: dose 10-30 mg/kg, time 5.0 day
Mus musculus [21] = test: Antiinflammatory activity against DSS-induced ulcerative colitis C57BL/6 mouse model assessed as decrease in IL-1 beta level in colon at 10 to 30 mg/kg, ip fed with DSS for 6 days followed by administration with compound for 5 days and measured on day 11 by ELISA; assay type: functional, organism-based; details: dose 10-30 mg/kg, time 5.0 day
Mus musculus [22] = test: Antiinflammatory activity against DSS-induced ulcerative colitis C57BL/6 mouse model assessed as decrease in TNF-alpha level in colon at 10 to 30 mg/kg, ip fed with DSS for 6 days followed by administration with compound for 5 days and measured on day 11 by ELISA; assay type: functional, organism-based; details: dose 10-30 mg/kg, time 5.0 day
Mus musculus [23] = test: (§1) Antiinflammatory activity against DSS-induced ulcerative colitis C57BL/6 mouse model assessed as improvement in crypt deformation in colon at 10 to 30 mg/kg, ip fed with DSS for 6 days followed by administration with compound for 5 days and measured on day 11 by H and E staining based analysis; assay type: functional, organism-based; details: dose 10-30 mg/kg, time 5.0 day
Mus musculus [24] = test: as §1, with “decrease” for “improvement”, “inflammatory cell infiltration” for “crypt deformation”; assay type: functional, organism-based; details: dose 10-30 mg/kg, time 5.0 day
Mus musculus [25] = test: Antiinflammatory activity against DSS-induced ulcerative colitis C57BL/6 mouse model assessed as decrease in goblet cell loss in colon at 10 to 30 mg/kg, ip fed with DSS for 6 days followed by administration with compound for 5 days and measured on day 11 by H and E staining based analysis; assay type: functional, organism-based; details: dose 10-30 mg/kg, time 5.0 day

NACHT, LRR and PYD domains-containing protein 3, sequence (Q8R4B8 whole entry, the tested form may be a part): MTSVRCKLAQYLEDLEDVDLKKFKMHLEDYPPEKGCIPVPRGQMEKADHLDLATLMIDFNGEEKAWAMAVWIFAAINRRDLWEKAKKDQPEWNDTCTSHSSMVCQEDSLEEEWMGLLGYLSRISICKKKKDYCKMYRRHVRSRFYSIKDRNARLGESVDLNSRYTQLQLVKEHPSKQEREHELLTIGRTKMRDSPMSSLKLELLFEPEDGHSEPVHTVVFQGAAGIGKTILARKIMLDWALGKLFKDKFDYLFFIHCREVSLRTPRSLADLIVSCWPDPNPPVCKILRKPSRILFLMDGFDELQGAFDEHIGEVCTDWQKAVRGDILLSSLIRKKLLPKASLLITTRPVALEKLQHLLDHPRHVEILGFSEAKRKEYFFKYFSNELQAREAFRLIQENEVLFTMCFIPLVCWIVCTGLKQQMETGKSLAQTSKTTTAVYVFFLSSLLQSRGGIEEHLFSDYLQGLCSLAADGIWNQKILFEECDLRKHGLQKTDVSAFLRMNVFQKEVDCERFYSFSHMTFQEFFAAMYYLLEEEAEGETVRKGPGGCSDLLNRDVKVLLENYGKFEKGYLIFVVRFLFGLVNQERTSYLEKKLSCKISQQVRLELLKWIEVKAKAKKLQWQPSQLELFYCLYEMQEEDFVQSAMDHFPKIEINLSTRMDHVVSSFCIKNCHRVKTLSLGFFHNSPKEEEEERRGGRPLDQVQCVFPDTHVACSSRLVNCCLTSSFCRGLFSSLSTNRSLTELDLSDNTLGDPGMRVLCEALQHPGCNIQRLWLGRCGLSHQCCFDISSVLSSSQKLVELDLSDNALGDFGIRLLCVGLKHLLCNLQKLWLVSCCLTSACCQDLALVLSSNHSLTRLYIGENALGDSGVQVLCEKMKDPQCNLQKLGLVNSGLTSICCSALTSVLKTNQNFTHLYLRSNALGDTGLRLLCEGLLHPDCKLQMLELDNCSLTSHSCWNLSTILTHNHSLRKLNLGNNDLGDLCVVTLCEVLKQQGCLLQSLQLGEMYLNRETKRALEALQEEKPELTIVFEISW
NACHT, LRR and PYD domains-containing protein 3 (Mus musculus), sequence (Q8R4B8 whole entry, the tested form may be a part): as above

half-life [1]: 0.525 h
IC50 [2]: 380 nM
inhibition [7]: Active
inhibition [8]: inactive
Activity (Homo sapiens [12]): Active
Activity (Homo sapiens [13]): Active
MRT last [14]: 3.27 h
Tmax [15]: 1 h
half-life [16]: 1.31 h
CL/F [17]: 144 mL/min/kg
MRT last [18]: 1.54 h
half-life [19]: 2.06 h
Compound: CC(C)c1nn(Cc2nnc(-c3ccc(C(F)(F)F)nc3Cl)o2)c(=O)c2cc3sc(Cl)cc3n12
Activity (THP-1 [3]): Non-Toxic
Activity (BMDM): Non-Toxic
Activity (THP-1 [4]): inactive
Activity (THP-1 [5]): inactive
Activity (THP-1 [6]): inactive
inhibition (THP-1 [9]): inactive
inhibition (THP-1 [10]): inactive
inhibition (THP-1 [11]): inactive
Activity (Mus musculus [20]): Active
Activity (Mus musculus [21]): Active
Activity (Mus musculus [22]): Active
Activity (Mus musculus [23]): Active
Activity (Mus musculus [24]): Active
Activity (Mus musculus [25]): Active
